Test results taken from US6737383B1, “Herbicidal oxadiazolidines” (priority 1999, dated 2004).

Legend:
[1] = test system: cocklebur; assay: Test B pre/postemergence cocklebur; format: in vivo, Xanthium strumarium
In short: (§1)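 Response is a visual 0-to-10 score relative to untreated plants, where 0 means no effect and 10 means complete control, taken twelve to sixteen days after application. Treatments went onto soil at planting and onto foliage of 1- to 4-leaf plants, using a surfactant-containing non-phytotoxic solvent.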

[2] = test system: crabgrass; assay: Test B pre/postemergence crabgrass; format: in vivo, Digitaria sanguinalis
In short: as §1

[3] = test system: duck salad; assay: Test B flood test duck salad; format: in vivo, Heteranthera limosa
In short: (§2)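 Read-out is a visual response score from 0 (no effect) to 10 (complete control), assigned by comparison with untreated controls. Treatment was applied at the 2-leaf stage, and plants stayed in the greenhouse for twelve to sixteen days before scoring.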

[4] = test system: velvetleaf; assay: Test B pre/postemergence velvetleaf; format: in vivo, Abutilon theophrasti
In short: as §1

[5] = test system: blackgrass; assay: Test B pre/postemergence blackgrass; format: in vivo, Alopecurus myosuroides
In short: as §1

[6] = test system: smallflower flatsedge; assay: Test B flood test smallflower flatsedge; format: in vivo, Cyperus difformis
In short: as §2

[7] = test system: purple nutsedge; assay: Test B pre/postemergence purple nutsedge; format: in vivo, Cyperus rotundus
In short: as §1

[8] = test system: corn; assay: Test B pre/postemergence corn; format: in vivo, Zea mays
In short: as §1

[9] = test system: bamyardgrass; assay: Test B flood test barnyardgrass; format: in vivo, Echinochloa crus-galli
In short: as §2

[10] = test system: surinam grass; assay: Test B pre/postemergence surinam grass; format: in vivo, Brachiaria decumbens
In short: as §1

[11] = test system: wild oat; assay: Test B pre/postemergence wild oat; format: in vivo, Avena fatua
In short: as §1

[12] = test system: sugar beet; assay: Test B pre/postemergence sugar beet; format: in vivo, Beta vulgaris
In short: as §1

[13] = test system: wheat; assay: Test B pre/postemergence wheat; format: in vivo, Triticum aestivum
In short: as §1

[14] = test system: rice; assay: Test B flood test rice; format: in vivo, Oryza sativa
In short: as §2

[15] = test system: bedstraw; assay: Test B pre/postemergence bedstraw; format: in vivo, Galium aparine
In short: as §1

[16] = test system: soybean; assay: Test B pre/postemergence soybean; format: in vivo, Glycine max
In short: as §1

[17] = Preemergence, Rate 62 g/ha, scale of 0 to 10 where 0 is no effect and 10 is complete control
[18] = Preemergence, Rate 250 g/ha, scale of 0 to 10 where 0 is no effect and 10 is complete control
[19] = Preemergence, Rate 500 g/ha, scale of 0 to 10 where 0 is no effect and 10 is complete control
[20] = Rate 62 g/ha, Postemergence, scale of 0 to 10 where 0 is no effect and 10 is complete control
[21] = Rate 125 g/ha, Postemergence, scale 0 to 10
[22] = Rate 125 g/ha, Preemergence, scale of 0 to 10 where 0 is no effect and 10 is complete control
[23] = Rate 500 g/ha, Postemergence, scale 0 to 10, 0 no effect, 10 complete control
[24] = Rate 62 g/ha, headed Pre-emergence (flood test species), scale 0 to 10 (0 no effect, 10 complete control)
[25] = Rate 125 g/ha, Pre-emergence, flood test species, scale 0 to 10 where 0 is no effect and 10 is complete control
[26] = Rate 250 g/ha, Pre-emergence, flood-test species, scale 0 to 10, 0 is no effect, 10 is complete control
[27] = Rate 500 g/ha, Pre-emergence, flood test species, scale 0 to 10 (0 no effect, 10 complete control)

Cc1nc(C)c(Cn2c(=O)on(C(=O)N(c3ccc(F)cc3F)C(C)C)c2=O)s1 [Compound 233]
7: Plant response rating, Velvetleaf [4, 19]
2: Cocklebur plant response rating [1, 21] | Plant response rating (0 to 10; 0 is no effect, 10 is complete control), Cocklebur ([1]; Rate 250 g/ha, Postemergence) | Cocklebur plant response rating [1, 23] | Velvetleaf plant response rating [4, 18] | Velvetleaf plant response rating [4, 20] | Velvetleaf plant response rating [4, 21] | Blackgrass plant response rating [5, 17] | Blackgrass plant response rating [5, 22] | Plant response rating (0 to 10; 0 is no effect, 10 is complete control), Blackgrass ([5]; Rate 250 g/ha, Postemergence) | B. signalgrass plant response rating [10, 22] | Wild oats plant response rating [11, 18] | Plant response rating (0 to 10; 0 is no effect, 10 is complete control), Wild oats ([11]; Rate 250 g/ha, Postemergence) | Wild oats plant response rating [11, 23]
4: B. signalgrass plant response rating ([10]; Preemergence, Rate 250 g/ha, scale 0 to 10, 0 is no effect, 10 is complete control) | Plant response rating, B. signalgrass [10, 19] | Sugarbeets plant response rating [12, 18] | Sugarbeets plant response rating [12, 23]
6: Crabgrass plant response rating [2, 22] | Crabgrass plant response rating [2, 23] | Plant response rating, Wild oats [11, 19]
3: Plant response rating (0 to 10; 0 is no effect, 10 is complete control), Velvetleaf ([4]; Rate 250 g/ha, Postemergence) | Velvetleaf plant response rating [4, 23] | Plant response rating (0 to 10; 0 is no effect, 10 is complete control), Bedstraw ([15]; Rate 250 g/ha, Postemergence) | Soybean plant response rating [16, 20] | Soybean plant response rating [16, 21] | Plant response rating (0 to 10; 0 is no effect, 10 is complete control), Soybean ([16]; Rate 250 g/ha, Postemergence)
0: Cocklebur plant response rating [1, 17] | Cocklebur plant response rating [1, 18] | Plant response rating, Cocklebur [1, 19] | Cocklebur plant response rating [1, 20] | Cocklebur plant response rating [1, 22] | Crabgrass plant response rating [2, 20] | Crabgrass plant response rating [2, 21] | Ducksalad plant response rating [3, 24] | Ducksalad plant response rating [3, 25] | Ducksalad plant response rating [3, 26] | Ducksalad plant response rating [3, 27] | Velvetleaf plant response rating [4, 17] | Velvetleaf plant response rating [4, 22] | Blackgrass plant response rating [5, 20] | Blackgrass plant response rating [5, 21] | S. Flatsedge plant response rating [6, 24] | S. Flatsedge plant response rating [6, 25] | S. Flatsedge plant response rating [6, 26] | S. Flatsedge plant response rating [6, 27] | Nutsedge plant response rating [7, 17] | Nutsedge plant response rating [7, 18] | Nutsedge plant response rating [7, 20] | Nutsedge plant response rating [7, 21] | Plant response rating (0 to 10; 0 is no effect, 10 is complete control), Nutsedge ([7]; Rate 250 g/ha, Postemergence) | Nutsedge plant response rating [7, 23] | Corn plant response rating [8, 17] | Corn plant response rating [8, 18] | Plant response rating, Corn [8, 19] | Corn plant response rating [8, 20] | Corn plant response rating [8, 21] | Corn plant response rating [8, 22] | Plant response rating (0 to 10; 0 is no effect, 10 is complete control), Corn ([8]; Rate 250 g/ha, Postemergence) | Corn plant response rating [8, 23] | Barnyardgrass plant response rating [9, 24] | Barnyardgrass plant response rating [9, 25] | Barnyardgrass plant response rating [9, 26] | Barnyardgrass plant response rating [9, 27] | B. signalgrass plant response rating [10, 17] | B. signalgrass plant response rating [10, 20] | B. signalgrass plant response rating ([10]; Rate 125 g/ha, Postemergence, scale 0 (no effect) to 10 (complete control)) | Plant response rating (0 to 10; 0 is no effect, 10 is complete control), B. signalgrass ([10]; Rate 250 g/ha, Postemergence) | Wild oats plant response rating [11, 17] | Wild oats plant response rating [11, 20] | Wild oats plant response rating [11, 21] | Sugarbeets plant response rating [12, 17] | Sugarbeets plant response rating [12, 20] | Sugarbeets plant response rating [12, 21] | Sugarbeets plant response rating [12, 22] | Plant response rating (0 to 10; 0 is no effect, 10 is complete control), Sugarbeets ([12]; Rate 250 g/ha, Postemergence) | Wheat plant response rating [13, 17] | Wheat plant response rating [13, 18] | Plant response rating, Wheat [13, 19] | Wheat plant response rating [13, 20] | Wheat plant response rating [13, 21] | Wheat plant response rating [13, 22] | Plant response rating (0 to 10; 0 is no effect, 10 is complete control), Wheat ([13]; Rate 250 g/ha, Postemergence) | Wheat plant response rating [13, 23] | Rice plant response rating [14, 24] | Rice plant response rating [14, 25] | Rice plant response rating [14, 26] | Rice plant response rating [14, 27] | Bedstraw plant response rating [15, 17] | Bedstraw plant response rating [15, 18] | Plant response rating, Bedstraw [15, 19] | Bedstraw plant response rating [15, 20] | Bedstraw plant response rating [15, 21] | Bedstraw plant response rating [15, 22] | Soybean plant response rating [16, 17] | Soybean plant response rating [16, 18] | Plant response rating, Soybean [16, 19] | Soybean plant response rating [16, 22]
10: Plant response rating, Crabgrass [2, 19]
1: Plant response rating (0 to 10; 0 is no effect, 10 is complete control), Crabgrass ([2]; Rate 250 g/ha, Postemergence) | B. signalgrass plant response rating [10, 23] | Wild oats plant response rating [11, 22]
9: Crabgrass plant response rating [2, 18] | Plant response rating, Blackgrass [5, 19]
8: Blackgrass plant response rating [5, 18] | Plant response rating, Sugarbeets [12, 19]
5: Crabgrass plant response rating [2, 17] | Blackgrass plant response rating [5, 23] | Bedstraw plant response rating [15, 23] | Soybean plant response rating [16, 23]
